Source: PubChem BioAssay AID1845212 (Molecular Pharmacology Branch, DTP, NCI, 2023)

These compounds were tested on NCI-H719 tumor spheroids, viability (assay: Anticancer human tumor NCI-H719 cell line growth inhibition). Settings: second compound 0.3 µM; first compound 0.1 µM; stronger effect = lower value; spheroids with HUVEC and MSC.
Method in brief: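 Single agents and combinations were tested on spheroids built from tumor cells plus HUVEC and hMSC, at half-log dilutions starting at or near clinical Cmax, else 10 microM; final DMSO 0.25% (v/v).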
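Further: spheroids exposed to compounds for seven days; percent viability relative to DMSO vehicle control as 100%.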

Compared with `COc1ccc([C@@H](O)c2cc(-c3ncnc4cc(N5CCOCC5)ccc34)c(F)cc2Cl)nn1` + CC[C@@]1(O)C(=O)OCc2c1cc1n(c2=O)Cc2cc3c(CN(C)C)c(O)ccc3nc2-1, `Cc1cc(C)c(CNC(=O)c2cc(-c3ccc(CN4CCOCC4)cc3)cc3c2cnn3C2CCCC2)c(=O)[nH]1` + CC[C@@]1(O)C(=O)OCc2c1cc1n(c2=O)Cc2cc3c(CN(C)C)c(O)ccc3nc2-1 is lower in viability, T/C: 7.08% for the first, 6.37% for the second.

`[2H]c1nc(C)nc([2H])c1-c1cc(NC[C@@H](C)c2cccc3c(C(=O)NC)ccnc23)ncn1` + CC[C@@]1(O)C(=O)OCc2c1cc1n(c2=O)Cc2cc3c(CN(C)C)c(O)ccc3nc2-1 showed a viability, T/C of 8.32%.

Same assay, conditions: second compound 0.3 µM; first compound 0.316 µM; stronger effect = lower value; spheroids with HUVEC and MSC

Compared with `CC(C)n1c(=O)n(C)c2cnc3cc(F)c(-c4ccc(OCCCN5CCCCC5)nc4)cc3c21` + CC[C@@]1(O)C(=O)OCc2c1cc1n(c2=O)Cc2cc3c(CN(C)C)c(O)ccc3nc2-1, `COc1ccc([C@@H](O)c2cc(-c3ncnc4cc(N5CCOCC5)ccc34)c(F)cc2Cl)nn1` + CC[C@@]1(O)C(=O)OCc2c1cc1n(c2=O)Cc2cc3c(CN(C)C)c(O)ccc3nc2-1 is lower in viability, T/C: 8.29% for the first, 6.09% for the second.

First: CC1COCCN1c1cc(-c2ccnn2C)c2ccnc(-c3ccn[nH]3)c2n1 (configuration not stated) + CC[C@@]1(O)C(=O)OCc2c1cc1n(c2=O)Cc2cc3c(CN(C)C)c(O)ccc3nc2-1
Second: Cc1cc(C)c(CNC(=O)c2cc(-c3ccc(CN4CCOCC4)cc3)cc3c2cnn3C2CCCC2)c(=O)[nH]1 + CC[C@@]1(O)C(=O)OCc2c1cc1n(c2=O)Cc2cc3c(CN(C)C)c(O)ccc3nc2-1
The viability, T/C of the first is lower: 5.49% for the first, 6.67% for the second.

Going from `COc1cc(C)[nH]c(=O)c1CN1CCc2c(Cl)cc(C(OC)C3COC3)c(Cl)c2C1=O` (configuration not stated) + CC[C@@]1(O)C(=O)OCc2c1cc1n(c2=O)Cc2cc3c(CN(C)C)c(O)ccc3nc2-1 to `[2H]c1nc(C)nc([2H])c1-c1cc(NC[C@@H](C)c2cccc3c(C(=O)NC)ccnc23)ncn1` + CC[C@@]1(O)C(=O)OCc2c1cc1n(c2=O)Cc2cc3c(CN(C)C)c(O)ccc3nc2-1, the viability, T/C falls from 8.64% to 8.45%.

Same assay, conditions: second compound 0.3 µM; first compound 1 µM; stronger effect = lower value; spheroids with HUVEC and MSC

Going from `CC(C)n1c(=O)n(C)c2cnc3cc(F)c(-c4ccc(OCCCN5CCCCC5)nc4)cc3c21` + CC[C@@]1(O)C(=O)OCc2c1cc1n(c2=O)Cc2cc3c(CN(C)C)c(O)ccc3nc2-1 to `COc1ccc([C@@H](O)c2cc(-c3ncnc4cc(N5CCOCC5)ccc34)c(F)cc2Cl)nn1` + CC[C@@]1(O)C(=O)OCc2c1cc1n(c2=O)Cc2cc3c(CN(C)C)c(O)ccc3nc2-1, the viability, T/C falls from 8.95% to 3.58%.

Compared with `CC1COCCN1c1cc(-c2ccnn2C)c2ccnc(-c3ccn[nH]3)c2n1` (configuration not stated) + CC[C@@]1(O)C(=O)OCc2c1cc1n(c2=O)Cc2cc3c(CN(C)C)c(O)ccc3nc2-1, `Cc1cc(C)c(CNC(=O)c2cc(-c3ccc(CN4CCOCC4)cc3)cc3c2cnn3C2CCCC2)c(=O)[nH]1` + CC[C@@]1(O)C(=O)OCc2c1cc1n(c2=O)Cc2cc3c(CN(C)C)c(O)ccc3nc2-1 is higher in viability, T/C: 2.94% for the first, 6.18% for the second.

Compared with `COc1cc(C)[nH]c(=O)c1CN1CCc2c(Cl)cc(C(OC)C3COC3)c(Cl)c2C1=O` (configuration not stated) + CC[C@@]1(O)C(=O)OCc2c1cc1n(c2=O)Cc2cc3c(CN(C)C)c(O)ccc3nc2-1, `[2H]c1nc(C)nc([2H])c1-c1cc(NC[C@@H](C)c2cccc3c(C(=O)NC)ccnc23)ncn1` + CC[C@@]1(O)C(=O)OCc2c1cc1n(c2=O)Cc2cc3c(CN(C)C)c(O)ccc3nc2-1 is lower in viability, T/C: 9.67% for the first, 8.64% for the second.

Same assay, conditions: second compound 0.3 µM; first compound 3.16 µM; stronger effect = lower value; spheroids with HUVEC and MSC

Compared with `CC(C)n1c(=O)n(C)c2cnc3cc(F)c(-c4ccc(OCCCN5CCCCC5)nc4)cc3c21` + CC[C@@]1(O)C(=O)OCc2c1cc1n(c2=O)Cc2cc3c(CN(C)C)c(O)ccc3nc2-1, `COc1ccc([C@@H](O)c2cc(-c3ncnc4cc(N5CCOCC5)ccc34)c(F)cc2Cl)nn1` + CC[C@@]1(O)C(=O)OCc2c1cc1n(c2=O)Cc2cc3c(CN(C)C)c(O)ccc3nc2-1 is lower in viability, T/C: 8.79% for the first, 1.58% for the second.

First: CC1COCCN1c1cc(-c2ccnn2C)c2ccnc(-c3ccn[nH]3)c2n1 (configuration not stated) + CC[C@@]1(O)C(=O)OCc2c1cc1n(c2=O)Cc2cc3c(CN(C)C)c(O)ccc3nc2-1
Second: Cc1cc(C)c(CNC(=O)c2cc(-c3ccc(CN4CCOCC4)cc3)cc3c2cnn3C2CCCC2)c(=O)[nH]1 + CC[C@@]1(O)C(=O)OCc2c1cc1n(c2=O)Cc2cc3c(CN(C)C)c(O)ccc3nc2-1
The viability, T/C of the first is lower: 2.15% for the first, 6.37% for the second.

Going from `COc1cc(C)[nH]c(=O)c1CN1CCc2c(Cl)cc(C(OC)C3COC3)c(Cl)c2C1=O` (configuration not stated) + CC[C@@]1(O)C(=O)OCc2c1cc1n(c2=O)Cc2cc3c(CN(C)C)c(O)ccc3nc2-1 to `[2H]c1nc(C)nc([2H])c1-c1cc(NC[C@@H](C)c2cccc3c(C(=O)NC)ccnc23)ncn1` + CC[C@@]1(O)C(=O)OCc2c1cc1n(c2=O)Cc2cc3c(CN(C)C)c(O)ccc3nc2-1, the viability, T/C falls from 8.76% to 8.15%.

Same assay, conditions: second compound 0.3 µM; first compound 10 µM; stronger effect = lower value; spheroids with HUVEC and MSC

First: CC(C)n1c(=O)n(C)c2cnc3cc(F)c(-c4ccc(OCCCN5CCCCC5)nc4)cc3c21 + CC[C@@]1(O)C(=O)OCc2c1cc1n(c2=O)Cc2cc3c(CN(C)C)c(O)ccc3nc2-1
Second: COc1ccc([C@@H](O)c2cc(-c3ncnc4cc(N5CCOCC5)ccc34)c(F)cc2Cl)nn1 + CC[C@@]1(O)C(=O)OCc2c1cc1n(c2=O)Cc2cc3c(CN(C)C)c(O)ccc3nc2-1
The viability, T/C of the first is higher: 5.92% for the first, 1.36% for the second.

First: CC1COCCN1c1cc(-c2ccnn2C)c2ccnc(-c3ccn[nH]3)c2n1 (configuration not stated) + CC[C@@]1(O)C(=O)OCc2c1cc1n(c2=O)Cc2cc3c(CN(C)C)c(O)ccc3nc2-1
Second: Cc1cc(C)c(CNC(=O)c2cc(-c3ccc(CN4CCOCC4)cc3)cc3c2cnn3C2CCCC2)c(=O)[nH]1 + CC[C@@]1(O)C(=O)OCc2c1cc1n(c2=O)Cc2cc3c(CN(C)C)c(O)ccc3nc2-1
The viability, T/C of the first is lower: 2.17% for the first, 6.13% for the second.

First: COc1cc(C)[nH]c(=O)c1CN1CCc2c(Cl)cc(C(OC)C3COC3)c(Cl)c2C1=O (configuration not stated) + CC[C@@]1(O)C(=O)OCc2c1cc1n(c2=O)Cc2cc3c(CN(C)C)c(O)ccc3nc2-1
Second: [2H]c1nc(C)nc([2H])c1-c1cc(NC[C@@H](C)c2cccc3c(C(=O)NC)ccnc23)ncn1 + CC[C@@]1(O)C(=O)OCc2c1cc1n(c2=O)Cc2cc3c(CN(C)C)c(O)ccc3nc2-1
The viability, T/C of the first is lower: 7.22% for the first, 8.2% for the second.
